Experimental data as given in ChEMBL document CHEMBL5352397, “Exploring gabosine and chlorogentisyl alcohol derivatives from a marine-derived fungus as EcGUS inhibitors with informatic assisted approaches” (Eur J Med Chem, 2022).
Calls of active or inactive are those of the source. No cut-off for these calls is given here.

Columns and labels:
[1] = molecular target: Beta-glucuronidase (Escherichia coli (strain K12)) (UniProt P05804); test: Inhibition of Escherichia coli beta-glucuronidase assessed as reduction of p-nitrophenol release using beta-PNPG as substrate at 10 uM incubated for 30 mins by Spectra max microplate reader analysis relative to control
Sequence of Beta-glucuronidase (Escherichia coli (strain K12)) (P05804 whole entry, looked up): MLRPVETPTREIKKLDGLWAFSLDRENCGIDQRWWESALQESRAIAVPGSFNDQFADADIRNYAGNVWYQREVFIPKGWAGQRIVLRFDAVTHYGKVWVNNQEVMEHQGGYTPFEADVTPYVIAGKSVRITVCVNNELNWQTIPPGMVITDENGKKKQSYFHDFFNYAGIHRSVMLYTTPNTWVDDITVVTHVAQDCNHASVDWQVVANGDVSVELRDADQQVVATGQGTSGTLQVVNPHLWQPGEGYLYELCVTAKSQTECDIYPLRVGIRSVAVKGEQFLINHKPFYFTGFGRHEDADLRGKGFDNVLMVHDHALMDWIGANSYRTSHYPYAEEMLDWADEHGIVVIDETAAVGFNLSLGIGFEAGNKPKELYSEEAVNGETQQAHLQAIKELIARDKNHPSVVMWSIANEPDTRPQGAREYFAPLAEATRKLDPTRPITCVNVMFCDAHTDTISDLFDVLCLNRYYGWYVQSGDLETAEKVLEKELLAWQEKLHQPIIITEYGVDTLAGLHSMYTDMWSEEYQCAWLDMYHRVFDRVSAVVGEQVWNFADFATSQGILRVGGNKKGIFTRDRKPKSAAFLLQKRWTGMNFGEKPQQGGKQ

Beta-glucuronidase [2] = molecular target: T1, Beta-glucuronidase (Escherichia coli (strain K12), UniProt P05804); test: Inhibition of Escherichia coli beta-glucuronidase assessed as reduction of p-nitrophenol release using beta-PNPG as substrate incubated for 30 mins by Spectra max microplate reader analysis
T1 sequence (P05804 whole entry): as the sequence (P05804 whole entry, looked up) above

Beta-glucuronidase [3] = molecular target: T1, Beta-glucuronidase; test: Inhibition of Escherichia coli beta-glucuronidase assessed as inhibition constant using beta-PNPG as substrate incubated for 30 mins by Lineweaver-Burk plot analysis
NAMALVA = test: Antiproliferative activity against human NAMALVA cells assessed as cell viability at 20 uM incubated for 48 hrs by MTT assay; type: functional; conditions: read-out: Activity
[4] = Antiproliferative activity against human U266B cells assessed as cell viability at 20 uM incubated for 48 hrs by MTT assay; type: functional; conditions: read-out: Activity
[5] = molecular target: Beta-glucuronidase (Escherichia coli (strain K12)) (UniProt P05804); test: Inhibition of Escherichia coli beta-glucuronidase using beta-PNPG as substrate at 2 to 8 uM incubated for 30 mins by Lineweaver-Burk plot analysis; conditions: dose 2-8 µM
[6] = molecular target: Beta-glucuronidase (Escherichia coli (strain K12)) (UniProt P05804); test: Inhibition of Escherichia coli beta-glucuronidase using beta-PNPG as substrate at 50 to 100 uM incubated for 30 mins by Lineweaver-Burk plot analysis; conditions: dose 50-100 µM
[7] = molecular target: Beta-glucuronidase (Escherichia coli (strain K12)) (UniProt P05804); test: Non-competitive inhibition of Escherichia coli beta-glucuronidase assessed as reduction of p-nitrophenol release using beta-PNPG as substrate at 10 uM incubated for 30 mins by Spectra max microplate reader analysis relative to control
Beta-glucuronidase [8] = molecular target: T1, Beta-glucuronidase; test: Non-competitive inhibition of Escherichia coli beta-glucuronidase assessed as reduction of p-nitrophenol release using beta-PNPG as substrate incubated for 30 mins by Spectra max microplate reader analysis
Beta-glucuronidase [9] = molecular target: T1, Beta-glucuronidase; test: Non-competitive inhibition of Escherichia coli beta-glucuronidase assessed as inhibition constant using beta-PNPG as substrate incubated for 30 mins by Lineweaver-Burk plot analysis

Structure (SMILES)	inhibition [1] [%]	IC50 (Beta-glucuronidase [2]) [nM]	Ki (Beta-glucuronidase [3]) [nM]	viability at 20 µM (NAMALVA) [%]	viability at 20 µM [4] [%]	also measured
O=C1C(Cc2cc(O)cc(Cl)c2O)=C[C@H](O)[C@@H](O)[C@@]12CCc1cc(O)c(Cl)c(Cl)c1O2	98	240	1090	83.9	95	inhibition [5]: Active
CCCCOCC1=C[C@@H](O)[C@@H](O)[C@H](O)C1=O	39.3					
O=C(O)[C@@H](O)[C@H]1OC(=O)[C@H](O)[C@H]1O [D-SACCHARIC ACID 1,4-LACTONE]	11.6	56700				inhibition [6]: Active
Cc1cc2c(c(=O)o1)C[C@H]1C(=O)[C@@H](O)[C@H](O)[C@H](O)[C@H]1O2	25.6					
OCc1cc(O)cc(Cl)c1O				70.4	94.1	inhibition [7]: 101%; IC50 (Beta-glucuronidase [8]): 740 nM; Ki (Beta-glucuronidase [9]): 580 nM
O=C1C(Cl)=C[C@H](O)[C@@H](O)[C@@]12CCc1cc(O)cc(Cl)c1O2	96.5	2830	1160	37	79.6	
Oc1cc(Cl)c(O)c(COCc2cc(O)cc(Cl)c2O)c1	101	580	710	56.6	88.6	
CCCCO[C@@H]1C(=O)C(C)=C[C@@H](O)[C@H]1O	86.5	4610	7320	91.7	109	
COCc1cccc(Cl)c1O	7.73					
O=Cc1cc(O)cc(Cl)c1O	69					
Cc1cccc(O)c1C(=O)O[C@@H]1C(=O)C(CO)=C[C@@H](O)[C@H]1O	27.6					
O=C1C(Cl)=C[C@H](O)[C@H](O)[C@@]12CCc1cc(O)cc(Cl)c1O2	86.3	2150	4430	-0.33	52.6	
O=C(OCc1cc(O)cc(Cl)c1O)c1cnccc1O	87.9	1950	1550	39.4	94.9	
Cc1cc2c(c(=O)o1)C[C@@H]1C(=O)C(Cl)=C[C@H](O)[C@H]1O2	55.1					
CCC1=C[C@@H](O)[C@@H](O)[C@H](Cl)C1=O				79.2	96.3	inhibition [7]: 99.1%; IC50 (Beta-glucuronidase [8]): 1260 nM; Ki (Beta-glucuronidase [9]): 1260 nM
O=C(O)c1cc(=O)c2ccccc2[nH]1	10.8					
C[C@H]1C[C@H](O)[C@@H](OCc2cc(O)cc(Cl)c2O)C[C@H]1O	91.8	400	3470	-3.03	7.86	inhibition [5]: Active
CC1=C[C@@H](O)[C@@H](O)[C@H](Cl)C1=O	100	1010	670	113	105	
Cc1cc2c(c(=O)o1)C[C@H]1[C@@H](O)[C@H](O)[C@H](O)[C@H]3c4c(cc(C)oc4=O)O[C@]31O2	5.16					
C[C@H]1C[C@H](OCc2cc(O)cc(Cl)c2O)[C@@H](O)C[C@H]1O	92.1	640	4270	71.7	77.8	
Cc1cc(O)c(Cc2cc(O)cc(Cl)c2O)c(=O)o1	20.1					
C[C@@H]1C[C@@H](O)[C@H](O[C@@H]2[C@@H](O)C=C(Cl)C(=O)[C@]23CCc2cc(O)cc(Cl)c2O3)C[C@@H]1O	15.3					
O=C1C(Cl)=C[C@H](O)[C@@H](O)[C@]12CCc1cc(O)cc(Cl)c1O2	49.9					
O=c1[nH]cc(F)c(=O)[nH]1 [FLUOROURACIL]				11.3	0	
C[C@H]1C[C@H](O)[C@@H](O)C[C@H]1OCc1cc(O)cc(Cl)c1O	92.8	630	1640	71.6	115	
CO[C@@H]1[C@@H](O)C=C(Cl)C(=O)[C@]12CCc1cc(O)cc(Cl)c1O2	98.4	1420	2660	58.3	84.9	
O=C1C(COCc2cc(O)cc(Cl)c2O)=C[C@@H](O)[C@@H](O)[C@@H]1Cl	87.1	1910	860	65.1	105	
